Experiment [1] has as its target T1, FLT3 (Homo sapiens, UniProt P36888).
T1 sequence (P36888 27-993): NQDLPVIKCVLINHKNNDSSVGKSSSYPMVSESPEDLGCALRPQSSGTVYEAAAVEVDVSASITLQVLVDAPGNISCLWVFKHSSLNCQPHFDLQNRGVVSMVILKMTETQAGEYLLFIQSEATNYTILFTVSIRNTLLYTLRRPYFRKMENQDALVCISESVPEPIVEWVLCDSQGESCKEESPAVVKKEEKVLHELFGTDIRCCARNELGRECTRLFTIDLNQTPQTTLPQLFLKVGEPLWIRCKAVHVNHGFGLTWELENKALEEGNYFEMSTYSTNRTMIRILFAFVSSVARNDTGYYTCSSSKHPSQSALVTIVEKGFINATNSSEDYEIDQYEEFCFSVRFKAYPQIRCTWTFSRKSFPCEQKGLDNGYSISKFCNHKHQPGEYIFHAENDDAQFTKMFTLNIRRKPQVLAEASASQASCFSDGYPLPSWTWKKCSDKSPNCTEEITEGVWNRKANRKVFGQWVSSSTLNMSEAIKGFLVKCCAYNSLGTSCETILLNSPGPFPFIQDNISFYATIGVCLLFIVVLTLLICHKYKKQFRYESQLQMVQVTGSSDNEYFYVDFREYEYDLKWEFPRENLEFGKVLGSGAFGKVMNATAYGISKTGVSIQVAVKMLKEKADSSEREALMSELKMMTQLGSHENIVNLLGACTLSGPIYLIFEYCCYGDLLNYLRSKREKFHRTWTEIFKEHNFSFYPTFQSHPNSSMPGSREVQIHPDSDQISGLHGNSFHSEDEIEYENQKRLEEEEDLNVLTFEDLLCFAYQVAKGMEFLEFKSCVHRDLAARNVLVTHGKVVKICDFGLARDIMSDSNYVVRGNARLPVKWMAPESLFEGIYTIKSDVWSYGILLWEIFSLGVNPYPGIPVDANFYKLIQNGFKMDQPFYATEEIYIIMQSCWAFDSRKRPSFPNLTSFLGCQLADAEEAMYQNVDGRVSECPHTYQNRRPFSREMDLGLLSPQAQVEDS
The experiment can be described thus: FLT3 biochemical assay (ADP Hunter).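 Note: FLT3 enzymatic activity quantified through the ADP produced by the kinase reaction, detected with an ADP Hunter readout.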 Conditions: semi-quantitative class.

Experiment [2] concerns the target T2, PIM-3 (Homo sapiens, UniProt Q86V86).
T2 construct: purchased Millipore 14-738
Kind of experiment: PIM-3 biochemical assay (ADP Hunter).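 Note: kinase activity read out as the quantity of ADP generated by the enzyme reaction.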 The conditions noted are these: read-out: PIM3 IC50.

Experiment [3] concerns the target T3, PIM-2 (Homo sapiens, UniProt Q9P1W9).
T3 construct: histidine tag (N); made in house
Kind of experiment: PIM-2 biochemical assay (ADP Hunter).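 Note: recombinant N-terminally His-tagged human enzyme, kinase activity quantified by detection of ADP formed as the direct reaction product.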 Conditions: semi-quantitative class; read-out: PIM2 IC50.

The target in experiment [4] is T4, PIM-1 (Homo sapiens, UniProt P11309).
T4 construct: histidine tag (C); made in house
T4 sequence (P11309 whole entry): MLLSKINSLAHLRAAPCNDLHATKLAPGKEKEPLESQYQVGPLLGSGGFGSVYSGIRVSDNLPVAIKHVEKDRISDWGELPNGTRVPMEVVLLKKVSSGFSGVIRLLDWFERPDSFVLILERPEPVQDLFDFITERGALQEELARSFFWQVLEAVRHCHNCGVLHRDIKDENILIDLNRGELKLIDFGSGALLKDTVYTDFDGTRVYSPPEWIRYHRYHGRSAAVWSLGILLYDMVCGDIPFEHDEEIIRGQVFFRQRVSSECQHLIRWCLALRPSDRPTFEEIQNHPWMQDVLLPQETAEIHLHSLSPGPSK
Kind of experiment: PIM-1 biochemical assay (ADP Hunter).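 Note: recombinant human PIM-1 carrying a C-terminal His tag, kinase activity quantified via ADP formed as the direct enzymatic product.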 Conditions: read-out: PIM1 IC50.

Setting [5] is: actual IC50 value in parentheses.

This passage reports IC50 results from patent US20130065883A1 (Centro Nacional de Investigaceiones Oncologicas (CNIO), priority 2010, published 2013).

The structures appear in SMILES notation. Like-named read-outs stand apart in the source and are kept apart here.

The IC50 is the concentration that gives 50% inhibition.

T3 sequence (Q9P1W9 whole entry): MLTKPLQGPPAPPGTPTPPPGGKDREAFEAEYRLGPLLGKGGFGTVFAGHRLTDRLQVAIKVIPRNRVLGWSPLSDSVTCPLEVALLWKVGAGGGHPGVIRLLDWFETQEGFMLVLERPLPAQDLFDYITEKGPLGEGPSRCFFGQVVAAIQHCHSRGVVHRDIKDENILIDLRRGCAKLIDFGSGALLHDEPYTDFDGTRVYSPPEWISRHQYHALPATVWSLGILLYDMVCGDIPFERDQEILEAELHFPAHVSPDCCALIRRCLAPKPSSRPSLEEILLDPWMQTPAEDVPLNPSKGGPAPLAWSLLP

Consider `Oc1ccc(-n2nnc3ccc(NCc4ccc(F)cc4)nc32)cc1` [2-04, 4-[5-(4-Fluoro-benzylamino)-[1,2,3]triazolo[4,5-b]pyridin-3-yl]-phenol], for which the IC50 in experiment [1] is above 1000 nM; in experiment [2] (setting [5]), 51 nM; in experiment [2] (semi-quantitative class) it was below 100 nM; in experiment [3], 100 to 1000 nM.
For the compound `Oc1ccc(-n2nnc3ccc(N4CCCCCC4)nc32)cc1` [2-05], the concentration for half-maximal inhibition (IC50) in experiment [1] is above 1000 nM.
Take `CN1CCC(CNc2ccc3nnn(-c4cccc(OC(F)(F)F)c4)c3n2)CC1` [2-19, (1-Methyl-piperidin-4-ylmethyl)-[3-(3-trifluoromethoxy-phenyl)-3H-[1,2,3]triazolo[4,5-b]pyridin-5-yl]-amine]: the results for the IC50 in experiment [1], in experiment [2] (semi-quantitative class) and in experiment [3] were above 1000 nM, 100 to 1000 nM and above 1000 nM, respectively.
Turning to `FCCN1CCC(CNc2ccc3nnn(-c4cccc(OC(F)(F)F)c4)c3n2)CC1` [2-28], the IC50 in experiment [1], in experiment [2] (semi-quantitative class) and in experiment [3] was above 1000 nM in each case.
As for `COCCN1CCC(CNc2ccc3nnn(-c4cccc(OC(F)(F)F)c4)c3n2)CC1` [2-30], the IC50 in experiment [1] and in experiment [3] was above 1000 nM throughout.
For the compound `FC(F)(F)Oc1cccc(-n2nnc3ccc(NCC4CCN(CC5CC5)CC4)nc32)c1` [2-31], the IC50 in experiment [1] and in experiment [3] was above 1000 nM in each case.
Regarding `Oc1ccc(-n2nnc3ccc(NCC4CCNCC4)nc32)cc1` [2-32], the IC50 was 11 nM in experiment [4] (setting [5]); below 100 nM in experiment [4] (semi-quantitative class); 100 to 1000 nM in experiment [1]; 15 nM in experiment [2] (setting [5]); below 100 nM in experiment [2] (semi-quantitative class); above 1000 nM in experiment [3].
Turning to `FC(F)(F)Oc1cccc(-n2nnc3ccc(NCCN4CCNCC4)nc32)c1` [2-36], the IC50 in experiment [4] (semi-quantitative class) is 100 to 1000 nM; in experiment [1], 100 to 1000 nM; in experiment [3], above 1000 nM.
Take `OCCCNc1ccc2nnn(-c3cccc(OC(F)(F)F)c3)c2n1` [2-38]: the concentration for half-maximal inhibition (IC50) is 100 to 1000 nM in experiment [4] (semi-quantitative class), above 1000 nM in experiment [1] and above 1000 nM in experiment [3].
With `CN(C)CCNc1ccc2nnn(-c3cccc(OC(F)(F)F)c3)c2n1` [2-39], the IC50 in experiment [4] (semi-quantitative class) and in experiment [3] was above 1000 nM each time.
In the case of `NC(=O)CNc1ccc2nnn(-c3cccc(OC(F)(F)F)c3)c2n1` [2-40], the IC50 in experiment [4] (semi-quantitative class) and in experiment [3] was above 1000 nM each time.
As for `CC(=O)NCCNc1ccc2nnn(-c3cccc(OC(F)(F)F)c3)c2n1` [2-41], the IC50 in experiment [4] (semi-quantitative class) and in experiment [3] was above 1000 nM each time.
In the case of `NC(=O)CCNc1ccc2nnn(-c3cccc(OC(F)(F)F)c3)c2n1` [2-42], the figures for the IC50 in experiment [4] (semi-quantitative class) and in experiment [3] were 100 to 1000 nM and above 1000 nM, respectively.
As for `FC(F)(F)Oc1cccc(-n2nnc3ccc(N4CCC5(CC4)CNC5)nc32)c1` [2-43], the IC50 was 100 to 1000 nM in experiment [4] (semi-quantitative class), above 1000 nM in experiment [1] and above 1000 nM in experiment [3].
Regarding `CNC1CCN(c2ccc3nnn(-c4cccc(OC(F)(F)F)c4)c3n2)CC1` [2-44], the IC50 is above 1000 nM in experiment [1], 100 to 1000 nM in experiment [2] (semi-quantitative class) and above 1000 nM in experiment [3].
Regarding `FC(F)(F)Oc1cccc(-n2nnc3ccc(N4CCC5(CCNCC5)CC4)nc32)c1` [2-45], the IC50 in experiment [1] and in experiment [3] was above 1000 nM each time.
`FC(F)(F)Oc1cccc(-n2nnc3ccc(N4CC5CNCC5C4)nc32)c1` (stereo not drawn) [2-46]: the IC50 in experiment [1] and in experiment [3] was above 1000 nM in each case.
As for `O=C1NCCN1CCNc1ccc2nnn(-c3cccc(OC(F)(F)F)c3)c2n1` [2-48], the IC50 in experiment [4] (semi-quantitative class) was 100 to 1000 nM; in experiment [3], above 1000 nM.
Taken in the same sequence, the figures for `CNCCCNc1ccc2nnn(-c3cccc(OC(F)(F)F)c3)c2n1` [2-50] were 100 to 1000 nM and above 1000 nM.
For the compound `O=C1NCCC12CCN(c1ccc3nnn(-c4cccc(OC(F)(F)F)c4)c3n1)CC2` [2-51], the IC50 in experiment [4] (semi-quantitative class) and in experiment [3] was above 1000 nM throughout.
Consider `O=C1CNC2(CCN(c3ccc4nnn(-c5cccc(OC(F)(F)F)c5)c4n3)CC2)C1` [2-52], for which the IC50 in experiment [4] (semi-quantitative class) and in experiment [3] was above 1000 nM throughout.
Regarding `CS(=O)(=O)N1CCC(Nc2ccc3nnn(-c4cccc(OC(F)(F)F)c4)c3n2)CC1` [2-56], the IC50 in experiment [4] (setting [5]) was 79 nM; in experiment [4] (semi-quantitative class), below 100 nM; in experiment [1] it was above 1000 nM; in experiment [2] (semi-quantitative class) it was above 1000 nM; in experiment [3] it was 100 to 1000 nM.
As to `FC(F)(F)Oc1cccc(-n2nnc3ccc(N4CCC5(CCNC5)CC4)nc32)c1` [2-60], the IC50 in experiment [1] and in experiment [3] was above 1000 nM each time.
Turning to `FC(F)(F)Oc1cccc(-n2nnc3ccc(N4CCC5(CCNCC5)C4)nc32)c1` [2-62], the half-inhibitory concentration (IC50) is above 1000 nM in experiment [1], 100 to 1000 nM in experiment [2] (semi-quantitative class) and above 1000 nM in experiment [3].
As for `FC(F)(F)c1cccc(-n2nnc3ccc(NCC4CCNCC4)nc32)c1` [2-63], the half-inhibitory concentration (IC50) in experiment [1] is above 1000 nM; in experiment [2] (semi-quantitative class) it was 100 to 1000 nM; in experiment [3], above 1000 nM.
Take `FC(F)(F)Oc1cccc(-n2nnc3ccc(N4CCC5(CCNC5)C4)nc32)c1` (stereo not drawn) [2-64]: the IC50 in experiment [4] (semi-quantitative class) was 100 to 1000 nM; in experiment [1] it was above 1000 nM; in experiment [3] it was above 1000 nM.
In the case of `FC(F)(F)Oc1cccc(-n2nnc3ccc(N4CCNCC4)nc32)c1` [2-69], the IC50 was above 1000 nM in experiment [1], 100 to 1000 nM in experiment [2] (semi-quantitative class) and above 1000 nM in experiment [3].
`Nc1ccc(-n2nnc3ccc(NCC4CCNCC4)nc32)cn1` [2-71]: the IC50 in experiment [1] was 100 to 1000 nM; in experiment [3], above 1000 nM.
For the compound `CS(=O)(=O)N1CCN(c2ccc3nnn(-c4cccc(OC(F)(F)F)c4)c3n2)CC1` [2-72], the IC50 was 100 to 1000 nM in experiment [4] (semi-quantitative class), above 1000 nM in experiment [2] (semi-quantitative class) and above 1000 nM in experiment [3].
For `CC(C)N1CCC(CNc2ccc3nnn(-c4cccc(OC(F)(F)F)c4)c3n2)CC1` [2-73], the results for the IC50 in experiment [1], in experiment [2] (semi-quantitative class) and in experiment [3] were above 1000 nM, 100 to 1000 nM and above 1000 nM, respectively.
Consider `CC(C)CN1CCC(CNc2ccc3nnn(-c4cccc(OC(F)(F)F)c4)c3n2)CC1` [2-74], for which the figures for the IC50 in experiment [4] (semi-quantitative class), in experiment [1] and in experiment [3] were 100 to 1000 nM, above 1000 nM and above 1000 nM, respectively.
Turning to `FC(F)(F)Oc1cccc(-n2nnc3ccc(NCC4CCN(CC5CCOCC5)CC4)nc32)c1` [2-75], the results for the IC50 in experiment [4] (semi-quantitative class), in experiment [1] and in experiment [3] were 100 to 1000 nM, above 1000 nM and above 1000 nM, respectively.
Turning to `CCN1CCC(CNc2ccc3nnn(-c4cccc(OC(F)(F)F)c4)c3n2)CC1` [2-76], the half-maximal inhibitory concentration (IC50) is above 1000 nM in experiment [1], 100 to 1000 nM in experiment [2] (semi-quantitative class) and above 1000 nM in experiment [3].
For `FC(F)(F)Oc1cccc(-n2nnc3cc(Cl)c(NCC4CC5(CCNCC5)C4)nc32)c1` [2-77], the results for the IC50 in experiment [4] (semi-quantitative class), in experiment [1] and in experiment [3] were 100 to 1000 nM, above 1000 nM and above 1000 nM, respectively.
Take `FC(F)(F)c1csc(-n2nnc3ccc(NCC4CCNCC4)nc32)n1` [2-88]: the IC50 in experiment [1] and in experiment [3] was above 1000 nM throughout.
On to `CCN1CCOC2(CCN(c3ccc4nnn(-c5cccc(OC(F)(F)F)c5)c4n3)CC2)C1` [2-90], for which the figures for the IC50 in experiment [4] (semi-quantitative class), in experiment [1] and in experiment [3] were above 1000 nM, 100 to 1000 nM and above 1000 nM, respectively.
Consider `CCN1CCC2(CC1)CC(CNc1nc3c(cc1Cl)nnn3-c1cccc(OC(F)(F)F)c1)C2` [2-91], for which the IC50 is 100 to 1000 nM in experiment [4] (semi-quantitative class), 100 to 1000 nM in experiment [1] and above 1000 nM in experiment [3].
For `COc1cc(NC2CCOCC2)nc2c1nnn2-c1cccc(N(C)C)c1` [2-93], the IC50 in experiment [4] (semi-quantitative class) was 100 to 1000 nM; in experiment [1], above 1000 nM.
